Assay results as given in patent US20080051466A1, “Isoalpha acid based protein kinase modulation cancer treatment” (Metaproteomics, LLC, priority 2006, published 2008).

Key:
Experiment in all cases: KinaseProfiler Assay
Assay type in all cases: biochemical
Aurora-A = biological target: T1, Aurora-A (Homo sapiens, UniProt O14965); conditions: read-out: Aurora-A, % of Control
T1 sequence (O14965 1-403): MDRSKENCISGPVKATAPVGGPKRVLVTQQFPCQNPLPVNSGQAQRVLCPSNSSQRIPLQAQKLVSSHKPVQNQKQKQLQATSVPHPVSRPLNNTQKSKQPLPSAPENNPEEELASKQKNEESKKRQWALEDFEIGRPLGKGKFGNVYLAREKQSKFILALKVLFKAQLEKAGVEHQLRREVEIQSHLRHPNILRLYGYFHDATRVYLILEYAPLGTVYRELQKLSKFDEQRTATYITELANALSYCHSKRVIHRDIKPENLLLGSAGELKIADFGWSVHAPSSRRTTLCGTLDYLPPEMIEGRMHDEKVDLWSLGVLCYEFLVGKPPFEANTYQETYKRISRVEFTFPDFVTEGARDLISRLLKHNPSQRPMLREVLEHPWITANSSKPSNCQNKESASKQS

BTK = BTK (Homo sapiens, UniProt Q06187); conditions: read-out: BTK, % of Control
CDK2/cyclinE = CDK2/cyclinE (Homo sapiens, UniProt P24941); conditions: read-out: CDK2/cyclinE, % of Control
CDK3/cyclinE = CDK3/cyclinE (Homo sapiens, UniProt Q00526); conditions: 50 ug/ml; read-out: CDK3/cyclinE, % of Control
CHK2 = CHK2 (Homo sapiens, UniProt O96017); conditions: read-out: CHK2, % of Control
cSRC = cSRC (Homo sapiens, UniProt P12931); conditions: read-out: cSRC, % of Control
HIPK3 = HIPK3 (Homo sapiens, UniProt Q9H422); conditions: read-out: HIPK3, % of Control
IRAK1 = IRAK1 (Homo sapiens, UniProt P51617); conditions: read-out: IRAK1, % of Control
MAPKAP-K2 = MAPKAP-K2 (Homo sapiens, UniProt P49137); conditions: read-out: MAPKAP-K2, % of Control
MINK = MINK (Homo sapiens, UniProt Q8N4C8); conditions: read-out: MINK, % of Control
PAK3 = PAK3 (Homo sapiens, UniProt O75914); conditions: read-out: PAK3, % of Control
PKBα = PKBα (Homo sapiens, UniProt P31749); conditions: read-out: PKBα, % of Control
PKBγ = PKBγ (Homo sapiens, UniProt Q9Y243); conditions: read-out: PKBγ, % of Control
PKCβII = PKCβII (Homo sapiens, UniProt P05771); conditions: read-out: PKCβII, % of Control
TrkA = TrkA (Homo sapiens, UniProt P04629); conditions: read-out: TrkA, % of Control
ZIPK = ZIPK (Homo sapiens, UniProt O43293); conditions: read-out: ZIPK, % of Control
PhKγ2 = biological target: T2, PhKγ2 (Homo sapiens, UniProt P15735); conditions: read-out: PhKγ2, % of Control
T2 sequence (P15735 1-406): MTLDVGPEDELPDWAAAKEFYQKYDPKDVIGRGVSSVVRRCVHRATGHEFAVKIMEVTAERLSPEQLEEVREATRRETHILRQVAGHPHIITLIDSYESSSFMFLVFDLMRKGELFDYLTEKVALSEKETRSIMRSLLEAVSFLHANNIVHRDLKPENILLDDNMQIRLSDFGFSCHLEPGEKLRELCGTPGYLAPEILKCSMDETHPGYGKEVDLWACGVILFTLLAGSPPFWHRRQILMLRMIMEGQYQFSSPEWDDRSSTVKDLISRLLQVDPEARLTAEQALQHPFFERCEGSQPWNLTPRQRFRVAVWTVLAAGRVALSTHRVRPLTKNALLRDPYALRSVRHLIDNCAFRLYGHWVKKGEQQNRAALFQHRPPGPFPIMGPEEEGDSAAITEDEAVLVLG

Chain of TrkA (P04629 33-796): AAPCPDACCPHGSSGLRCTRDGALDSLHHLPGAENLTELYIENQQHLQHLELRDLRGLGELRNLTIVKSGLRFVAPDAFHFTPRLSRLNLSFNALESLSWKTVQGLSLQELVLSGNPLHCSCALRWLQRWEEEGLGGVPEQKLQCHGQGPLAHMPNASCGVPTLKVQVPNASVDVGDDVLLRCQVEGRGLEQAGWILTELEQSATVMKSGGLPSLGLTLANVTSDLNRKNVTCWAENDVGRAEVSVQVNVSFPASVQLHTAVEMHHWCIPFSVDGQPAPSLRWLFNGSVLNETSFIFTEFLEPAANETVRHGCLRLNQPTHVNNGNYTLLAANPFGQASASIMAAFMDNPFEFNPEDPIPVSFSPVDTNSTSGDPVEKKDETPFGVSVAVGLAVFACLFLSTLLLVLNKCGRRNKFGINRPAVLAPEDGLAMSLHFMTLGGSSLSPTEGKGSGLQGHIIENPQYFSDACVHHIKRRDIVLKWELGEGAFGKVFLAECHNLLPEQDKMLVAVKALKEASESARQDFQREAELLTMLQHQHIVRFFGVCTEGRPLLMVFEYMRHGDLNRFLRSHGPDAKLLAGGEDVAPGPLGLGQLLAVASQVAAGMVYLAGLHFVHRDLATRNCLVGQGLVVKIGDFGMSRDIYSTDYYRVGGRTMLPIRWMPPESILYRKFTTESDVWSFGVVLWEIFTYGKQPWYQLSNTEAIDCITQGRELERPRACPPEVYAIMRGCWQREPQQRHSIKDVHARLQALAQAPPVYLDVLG
Chain of cSRC (P12931 whole entry): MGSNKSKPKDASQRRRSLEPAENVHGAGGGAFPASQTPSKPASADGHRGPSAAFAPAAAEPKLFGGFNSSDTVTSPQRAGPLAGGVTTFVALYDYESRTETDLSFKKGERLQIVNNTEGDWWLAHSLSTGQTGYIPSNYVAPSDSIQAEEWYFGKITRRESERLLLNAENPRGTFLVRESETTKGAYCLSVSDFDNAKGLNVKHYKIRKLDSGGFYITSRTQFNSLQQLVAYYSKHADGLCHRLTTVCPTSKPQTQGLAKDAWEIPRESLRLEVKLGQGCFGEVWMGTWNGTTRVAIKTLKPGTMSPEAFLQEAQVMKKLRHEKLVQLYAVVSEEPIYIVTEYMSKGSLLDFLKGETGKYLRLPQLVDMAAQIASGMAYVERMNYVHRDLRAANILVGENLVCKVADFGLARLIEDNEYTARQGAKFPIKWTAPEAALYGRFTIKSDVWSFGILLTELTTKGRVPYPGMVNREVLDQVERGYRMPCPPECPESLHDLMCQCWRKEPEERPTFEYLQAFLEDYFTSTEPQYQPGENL
Chain of PAK3 (O75914 whole entry): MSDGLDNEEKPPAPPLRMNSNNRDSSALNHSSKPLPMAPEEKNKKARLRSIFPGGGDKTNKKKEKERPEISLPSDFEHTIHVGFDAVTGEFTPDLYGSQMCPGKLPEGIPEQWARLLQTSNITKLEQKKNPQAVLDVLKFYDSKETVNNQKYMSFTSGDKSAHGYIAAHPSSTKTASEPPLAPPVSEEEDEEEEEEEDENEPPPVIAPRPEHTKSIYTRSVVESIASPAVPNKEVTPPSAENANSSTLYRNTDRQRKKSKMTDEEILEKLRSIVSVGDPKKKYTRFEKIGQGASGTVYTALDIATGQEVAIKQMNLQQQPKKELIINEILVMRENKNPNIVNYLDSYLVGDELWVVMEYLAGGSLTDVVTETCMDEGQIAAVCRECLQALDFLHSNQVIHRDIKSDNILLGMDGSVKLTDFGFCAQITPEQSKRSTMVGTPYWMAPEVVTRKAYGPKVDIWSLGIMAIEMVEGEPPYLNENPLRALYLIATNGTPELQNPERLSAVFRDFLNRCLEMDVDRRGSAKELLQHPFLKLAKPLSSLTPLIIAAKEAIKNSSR
Chain of HIPK3 (Q9H422 whole entry): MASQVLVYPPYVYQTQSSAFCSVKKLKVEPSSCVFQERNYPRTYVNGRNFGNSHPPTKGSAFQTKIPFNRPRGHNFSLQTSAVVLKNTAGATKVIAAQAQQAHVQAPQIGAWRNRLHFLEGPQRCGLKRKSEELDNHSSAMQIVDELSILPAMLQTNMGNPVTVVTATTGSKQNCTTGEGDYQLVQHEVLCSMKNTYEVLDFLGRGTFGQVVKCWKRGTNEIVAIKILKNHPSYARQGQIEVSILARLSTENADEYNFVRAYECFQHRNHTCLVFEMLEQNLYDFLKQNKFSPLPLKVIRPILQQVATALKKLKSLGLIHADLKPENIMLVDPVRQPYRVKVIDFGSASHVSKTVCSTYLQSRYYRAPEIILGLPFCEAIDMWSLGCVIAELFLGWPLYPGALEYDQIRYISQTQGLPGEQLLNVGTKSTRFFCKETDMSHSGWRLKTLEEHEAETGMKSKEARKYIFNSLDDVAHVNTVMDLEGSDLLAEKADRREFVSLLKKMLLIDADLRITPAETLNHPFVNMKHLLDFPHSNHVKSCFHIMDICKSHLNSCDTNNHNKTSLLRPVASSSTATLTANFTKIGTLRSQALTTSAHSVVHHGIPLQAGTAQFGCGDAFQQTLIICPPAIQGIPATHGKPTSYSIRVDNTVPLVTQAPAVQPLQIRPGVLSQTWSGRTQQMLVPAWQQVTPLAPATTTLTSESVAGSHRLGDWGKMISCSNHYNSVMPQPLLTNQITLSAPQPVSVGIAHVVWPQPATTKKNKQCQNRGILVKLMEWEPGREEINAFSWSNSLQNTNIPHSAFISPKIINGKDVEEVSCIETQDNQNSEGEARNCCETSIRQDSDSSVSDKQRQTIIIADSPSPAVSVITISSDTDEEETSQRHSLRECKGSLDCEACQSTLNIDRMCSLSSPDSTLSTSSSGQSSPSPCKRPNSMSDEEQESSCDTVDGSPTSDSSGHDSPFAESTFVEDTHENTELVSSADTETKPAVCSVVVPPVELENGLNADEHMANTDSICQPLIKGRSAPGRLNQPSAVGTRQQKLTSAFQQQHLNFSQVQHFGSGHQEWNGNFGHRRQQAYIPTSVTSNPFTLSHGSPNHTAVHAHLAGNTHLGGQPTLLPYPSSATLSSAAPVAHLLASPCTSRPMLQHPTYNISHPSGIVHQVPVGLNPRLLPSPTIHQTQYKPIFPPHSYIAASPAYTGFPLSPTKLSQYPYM
Chain of IRAK1 (P51617 whole entry): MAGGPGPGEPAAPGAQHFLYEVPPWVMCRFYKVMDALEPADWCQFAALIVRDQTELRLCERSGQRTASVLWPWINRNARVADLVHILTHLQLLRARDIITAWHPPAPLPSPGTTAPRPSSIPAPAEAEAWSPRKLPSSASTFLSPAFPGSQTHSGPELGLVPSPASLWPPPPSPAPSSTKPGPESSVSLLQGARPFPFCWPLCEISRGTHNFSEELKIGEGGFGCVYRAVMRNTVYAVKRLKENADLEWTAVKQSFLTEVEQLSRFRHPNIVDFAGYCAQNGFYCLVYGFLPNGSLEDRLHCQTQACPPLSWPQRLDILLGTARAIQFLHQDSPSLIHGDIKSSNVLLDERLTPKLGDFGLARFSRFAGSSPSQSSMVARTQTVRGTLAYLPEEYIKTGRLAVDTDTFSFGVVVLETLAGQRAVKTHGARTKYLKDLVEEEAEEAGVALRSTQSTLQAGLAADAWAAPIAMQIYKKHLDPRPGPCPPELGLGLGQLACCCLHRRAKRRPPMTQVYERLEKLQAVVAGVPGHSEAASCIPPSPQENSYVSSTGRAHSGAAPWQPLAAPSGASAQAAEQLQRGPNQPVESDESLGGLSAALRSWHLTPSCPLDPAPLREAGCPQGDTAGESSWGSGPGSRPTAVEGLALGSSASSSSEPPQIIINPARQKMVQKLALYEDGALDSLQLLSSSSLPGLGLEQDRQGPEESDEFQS
Chain of PKBγ (Q9Y243 whole entry): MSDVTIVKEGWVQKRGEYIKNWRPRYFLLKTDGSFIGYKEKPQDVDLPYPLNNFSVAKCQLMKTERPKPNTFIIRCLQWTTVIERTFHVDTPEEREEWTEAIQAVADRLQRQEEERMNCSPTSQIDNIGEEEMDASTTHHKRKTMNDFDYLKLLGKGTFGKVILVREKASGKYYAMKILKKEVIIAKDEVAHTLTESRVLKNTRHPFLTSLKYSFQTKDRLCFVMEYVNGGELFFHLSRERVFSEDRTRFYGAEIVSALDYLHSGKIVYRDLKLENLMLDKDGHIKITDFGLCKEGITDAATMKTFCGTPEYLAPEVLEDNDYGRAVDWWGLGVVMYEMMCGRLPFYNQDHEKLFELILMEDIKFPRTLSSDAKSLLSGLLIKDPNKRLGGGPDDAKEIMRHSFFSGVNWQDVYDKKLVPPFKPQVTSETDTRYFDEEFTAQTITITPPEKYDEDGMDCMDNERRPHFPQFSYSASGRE
Chain of CHK2 (O96017 whole entry): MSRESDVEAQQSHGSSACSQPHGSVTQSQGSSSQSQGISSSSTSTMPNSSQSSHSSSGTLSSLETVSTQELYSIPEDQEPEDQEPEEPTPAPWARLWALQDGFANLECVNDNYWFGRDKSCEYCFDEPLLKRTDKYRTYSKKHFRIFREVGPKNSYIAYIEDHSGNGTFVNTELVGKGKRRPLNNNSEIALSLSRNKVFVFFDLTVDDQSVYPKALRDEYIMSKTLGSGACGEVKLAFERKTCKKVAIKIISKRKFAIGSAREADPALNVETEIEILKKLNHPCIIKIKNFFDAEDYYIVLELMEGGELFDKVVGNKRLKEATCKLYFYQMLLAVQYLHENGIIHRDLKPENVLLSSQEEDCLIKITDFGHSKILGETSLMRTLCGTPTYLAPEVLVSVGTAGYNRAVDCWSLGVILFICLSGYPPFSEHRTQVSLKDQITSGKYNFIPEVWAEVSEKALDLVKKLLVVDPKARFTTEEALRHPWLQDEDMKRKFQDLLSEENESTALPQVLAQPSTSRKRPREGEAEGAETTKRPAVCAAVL

## COc1cc(O)c(CC=C(C)C)c(O)c1C(=O)/C=C/c1ccc(O)cc1 [Xanthohumol, xanthohumol]
Aurora-A; 5 ug/ml
  remaining activity at 5 µg/mL: 27%
Aurora-A; 25 ug/ml
  remaining activity at 25 µg/mL: 3%
Aurora-A; 50 ug/ml
  remaining activity at 50 µg/mL: 8%
BTK; 1 ug/ml
  remaining activity at 1 µg/mL: 109%
BTK; 5 ug/ml
  remaining activity at 5 µg/mL: 57%
BTK; 50 ug/ml
  remaining activity at 50 µg/mL: 20%
CDK2/cyclinE; 1 ug/ml
  remaining activity at 1 µg/mL: 82%
CDK2/cyclinE; 5 ug/ml
  remaining activity at 5 µg/mL: 86%
CDK2/cyclinE; 25 ug/ml
  remaining activity at 25 µg/mL: 18%
CDK3/cyclinE
  remaining activity at 50 µg/mL: 8%
CHK2; 1 ug/ml
  remaining activity at 1 µg/mL: 25%
CHK2; 5 ug/ml
  remaining activity at 5 µg/mL: 5%
CHK2; 25 ug/ml
  remaining activity at 25 µg/mL: 3%
cSRC; 1 ug/ml
  remaining activity at 1 µg/mL: 92%
cSRC; 5 ug/ml
  remaining activity at 5 µg/mL: 50%
cSRC; 25 ug/ml
  remaining activity at 25 µg/mL: 27%
cSRC; 50 ug/ml
  remaining activity at 50 µg/mL: 21%
HIPK3; 1 ug/ml
  remaining activity at 1 µg/mL: 106%
HIPK3; 5 ug/ml
  remaining activity at 5 µg/mL: 102%
HIPK3; 50 ug/ml
  remaining activity at 50 µg/mL: 59%
IRAK1; 1 ug/ml
  remaining activity at 1 µg/mL: 129%
IRAK1; 5 ug/ml
  remaining activity at 5 µg/mL: 104%
IRAK1; 50 ug/ml
  remaining activity at 50 µg/mL: 36%
MAPKAP-K2; 1 ug/ml
  remaining activity at 1 µg/mL: 99%
MAPKAP-K2; 5 ug/ml
  remaining activity at 5 µg/mL: 95%
MAPKAP-K2; 25 ug/ml
  remaining activity at 25 µg/mL: 6%
MAPKAP-K2; 50 ug/ml
  remaining activity at 50 µg/mL: 8%
MINK; 1 ug/ml
  remaining activity at 1 µg/mL: 42%
MINK; 5 ug/ml
  remaining activity at 5 µg/mL: 10%
MINK; 25 ug/ml
  remaining activity at 25 µg/mL: 5%
MINK; 50 ug/ml
  remaining activity at 50 µg/mL: 7%
PAK3; 1 ug/ml
  remaining activity at 1 µg/mL: 21%
PAK3; 5 ug/ml
  remaining activity at 5 µg/mL: 18%
PAK3; 25 ug/ml
  remaining activity at 25 µg/mL: 8%
PKBα; 1 ug/ml
  remaining activity at 1 µg/mL: 102%
PKBα; 25 ug/ml
  remaining activity at 25 µg/mL: 18%
PKBα; 50 ug/ml
  remaining activity at 50 µg/mL: 5%
PKBγ; 1 ug/ml
  remaining activity at 1 µg/mL: 104%
PKBγ; 5 ug/ml
  remaining activity at 5 µg/mL: 104%
PKBγ; 25 ug/ml
  remaining activity at 25 µg/mL: 12%
PKCβII; 1 ug/ml
  remaining activity at 1 µg/mL: 108%
PKCβII; 5 ug/ml
  remaining activity at 5 µg/mL: 108%
PKCβII; 25 ug/ml
  remaining activity at 25 µg/mL: 71%
PKCβII; 50 ug/ml
  remaining activity at 50 µg/mL: 79%
TrkA; 1 ug/ml
  remaining activity at 1 µg/mL: 36%
TrkA; 5 ug/ml
  remaining activity at 5 µg/mL: 19%
TrkA; 25 ug/ml
  remaining activity at 25 µg/mL: 8%
TrkA; 50 ug/ml
  remaining activity at 50 µg/mL: 3%
ZIPK; 1 ug/ml
  remaining activity at 1 µg/mL: 115%
ZIPK; 5 ug/ml
  remaining activity at 5 µg/mL: 74%
ZIPK; 25 ug/ml
  remaining activity at 25 µg/mL: 20%
ZIPK; 50 ug/ml
  remaining activity at 50 µg/mL: 70%
PhKγ2; 1 ug/ml
  remaining activity at 1 µg/mL: 106%
PhKγ2; 5 ug/ml
  remaining activity at 5 µg/mL: 60%
PhKγ2; 25 ug/ml
  remaining activity at 25 µg/mL: 11%
PhKγ2; 50 ug/ml
  remaining activity at 50 µg/mL: 5%
